Source: BindingDB's records for doi:10.1021/jm031026e (Universit&#224, 2004)

molecular target: Sigma non-opioid intracellular receptor 1 (Cavia porcellus) (UniProt Q60492); test: In vitro binding affinity at opioid sigma-1 receptor in guinea pig brain membranes by (+)-[3H]pentazocine displacement.
Sequence (Q60492 whole entry, looked up): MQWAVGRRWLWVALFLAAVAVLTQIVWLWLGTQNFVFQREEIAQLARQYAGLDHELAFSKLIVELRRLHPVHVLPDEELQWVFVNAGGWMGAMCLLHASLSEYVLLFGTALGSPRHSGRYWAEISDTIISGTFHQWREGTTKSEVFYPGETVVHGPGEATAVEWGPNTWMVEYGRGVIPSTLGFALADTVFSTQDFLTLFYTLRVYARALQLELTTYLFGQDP

Ki	Structure (SMILES)
1.57 nM	COc1cccc2c1CCCC2CCN1CCN(C2CCCCC2)CC1 (centres undefined) [1-Cyclohexyl-4-[2-(5-methoxy-1,2,3,4-tetrahydro-naphthalen-1-yl)-ethyl]-piperazine]
0.69 nM	Oc1ccc2c(c1)CCCC2CCCN1CCN(C2CCCCC2)CC1 (centres undefined) [5-[3-(4-Cyclohexyl-piperazin-1-yl)-propyl]-5,6,7,8-tetrahydro-naphthalen-2-ol]
0.4 nM	COc1cccc2c1CCCC2N1CCN(C2CCCCC2)CC1 (centres undefined) [1-Cyclohexyl-4-(5-methoxy-1,2,3,4-tetrahydro-naphthalen-1-yl)-piperazine]
0.36 nM	COc1ccc2c(c1)CCCC2CCCN1CCN(C2CCCCC2)CC1 (centres undefined) [1-Cyclohexyl-4-[3-(6-methoxy-1,2,3,4-tetrahydro-naphthalen-1-yl)-propyl]-piperazine]
1.52 nM	COc1cccc2c1CCCC2CCCCCN1CCN(C2CCCCC2)CC1 (centres undefined) [1-Cyclohexyl-4-[5-(5-methoxy-1,2,3,4-tetrahydro-naphthalen-1-yl)-pentyl]-piperazine]
0.22 nM	c1ccc2c(CCCCN3CCN(C4CCCCC4)CC3)cccc2c1 [1-Cyclohexyl-4-(4-naphthalen-1-yl-butyl)-piperazine]
0.61 nM	c1ccc2c(c1)CCCC2CCCN1CCN(C2CCCCC2)CC1 (centres undefined) [1-Cyclohexyl-4-[3-(1,2,3,4-tetrahydro-naphthalen-1-yl)-propyl]-piperazine]
1.45 nM	c1ccc2c(c1)CCCC2CCCCCN1CCN(C2CCCCC2)CC1 (centres undefined) [1-Cyclohexyl-4-[5-(1,2,3,4-tetrahydro-naphthalen-1-yl)-pentyl]-piperazine]
2.4 nM	c1ccc2c(CCCCCN3CCN(C4CCCCC4)CC3)cccc2c1 [1-Cyclohexyl-4-(5-naphthalen-1-yl-pentyl)-piperazine]
2.16 nM	c1ccc2c(CCCN3CCN(C4CCCCC4)CC3)cccc2c1 [1-Cyclohexyl-4-(3-naphthalen-1-yl-propyl)-piperazine]
9.04 nM	COc1ccc2c(c1)C(CCCN1CCN(C3CCCCC3)CC1)CCC2 (centres undefined) [1-Cyclohexyl-4-[3-(7-methoxy-1,2,3,4-tetrahydro-naphthalen-1-yl)-propyl]-piperazine]
3.07 nM	COc1cccc2c1CCCC2CCCCCCN1CCN(C2CCCCC2)CC1 (centres undefined) [1-Cyclohexyl-4-[6-(5-methoxy-1,2,3,4-tetrahydro-naphthalen-1-yl)-hexyl]-piperazine]

Structure (SMILES)	Ki
COc1cccc2c1CCCC2CN1CCN(C2CCCCC2)CC1 (centres undefined) [1-Cyclohexyl-4-(5-methoxy-1,2,3,4-tetrahydro-naphthalen-1-ylmethyl)-piperazine]	0.31 nM
c1ccc(CCN2CCCCC2)cc1 [N-phenethylpiperidine]	309 nM
